Results: US8124655B2, “Use of LR-90 and LR-102 to overcome insulin resistance” (City of Hope, priority 2007, dated 2012)

Columns and labels:
[1] = system: Zucker diabetic fatty (ZDF) rat; experiment: Kidney histopathology: PAMS and Masson's trichrome staining; assay type: in vivo; conditions: kidney of ZDF rats, p<0.01 vs ZDF
Description: Kidney sections were stained with periodic acid-Schiff-methenamine silver (PAMS) to evaluate glomerulosclerosis and mesangial matrix expansion; Masson's trichrome staining was used to analyse collagen deposition and cortical tubule degeneration. Glomerulosclerosis was defined as glomerular basement membrane thickening, mesangial hypertrophy and capillary occlusion, and was semiquantitatively evaluated on an arbitrary scale of 0 to 4: grade 0 (normal); grade 1 (sclerotic area less than 25%); grade 2 (sclerotic area 25-50%); grade 3 (sclerotic area 50-75%); and grade 4 (sclerotic area more than 75%). The glomerulosclerotic index was then calculated as described. Briefly, 100 glomeruli were randomly chosen from each rat kidney stained with PAMS and carefully scored for sclerosis by two blinded investigators. This was done in a sequential manner to ensure that the same glomerulus was not graded twice. To quantify for mesangial expansion and ECM accumulation in the mesangial areas, PAMS-positive materials in the mesangial region excluding cellular elements were analysed using an image analyser with a microscope (Olympus AX70; Olympus Optical, Hamburg, Germany) and photographed using a Retiga 2000R CCD camera (Qimaging, Surrey, BC, Canada). Twenty glomeruli, randomly selected from each rat were evaluated by two investigators without knowledge of the origin of the slides. The percentage of PAMS-positive area in each glomerulus was analysed using Image Pro Plus (Media Cybernetics, Silver Spring, Mass., USA). Results were expressed as percentage of areas positive for PAMS staining. To evaluate cortical tubule degeneration and collagen deposition, kidney sections were stained withMasson's trichrome. In each section, six fields of kidney cortex were randomly selected at 100× magnification using an Olympus AX70 microscope, photographed using a Retiga 2000R camera and the images analysed by Image Pro Plus. Blue and red colours indicate collagen and cytoplasm staining, respectively. Degenerate tubules in each field were identified by the absence of cytoplasm and results expressed as number of degenerate tubules per field. For quantitative measurement of collagen deposition, positively stained areas from six random regions in each slide were identified and scored by dividing the positively stained areas by the total tissue area in the same field using the colour separation function of Image Pro Plus. Results were expressed as percentage of area with positive staining.

[2] = system: Zucker diabetic fatty (ZDF) rat; experiment: Renal function: urinary albumin and total protein excretion, kidney weights (Example 1); assay type: in vivo
Description: All animal studies were carried out in compliance with policies outlined in The Guide for the Care and Handling of Laboratory Animals (NIH Publication No. 85-23) that have been approved by the City of Hope Animal Care Committee. Male ZDF (fa/fa) and male Zucker lean (+/+; ZL) rats were obtained at the age of 5 weeks from Charles River Laboratories (Wilmington, Mass., USA). Animals were maintained with free access to Purina 5008 rat chow (Purina Mills, St Louis, Mo., USA) and tap water. All animals were individually housed in a controlled room with a 12 h dark-light cycle. At the age of 13 weeks, the animals were divided into the following groups: (1) ZL rats (n=6); (2) ZDF rats without treatment (n=6); and (3) ZDF rats treated with LR-90 at 50 mg/l in their drinking water (ZDF90, n=6). The dose of LR-90 was chosen after previous experiments with type 1 diabetic nephropathy. Food, water intake, body weight and blood glucose levels were monitored periodically. Systolic blood pressure was measured by tail-cuff plethysmography (CODA2 Blood Pressure System; Kent Scientific, Torrington, Conn., USA). Animals were killed at the age of 40 weeks by over-anaesthetisation with isoflurane and cardiac puncture. Blood samples were collected from each animal and transferred accordingly into heparinised vacutainer tubes; they were later centrifuged (1,500×g for 10 min at 4° C.) for plasma isolation. The kidneys were removed immediately, rinsed in PBS and weighed, after which specimens were snap-frozen in liquid nitrogen or fixed in 10% (vol./vol.) neutral buffered formalin for further biochemical and histological analyses. Plasma glucose, lipids and Nε-(carboxymethyl)lysine-AGE Plasma glucose was measured using a glucose analyzer (2300 STAT; YSI, Yellowsprings, Ohio, USA). Total plasma triacylglycerol and cholesterol concentrations were quantified using the Vitros 250 Chemistry System (Johnson & Johnson, Rochester, N.Y., USA). Nε-(Carboxymethyl)lysine (CML)-AGE was liberated from plasma proteins by acid hydrolysis and then measured by ion-pair reversed-phase liquid chromatography/tandem mass spectrometry as described previously.
Renal function was assessed by measuring urinary albumin and total protein excretion. Prior to killing, rats were housed in metabolism cages for 24 h urine collection. Urinary albumin was quantified using the Nephrat kit according to manufacturer's instructions. Total urinary protein was measured using a kit (DC Assay; Bio-Rad Laboratories, Hercules, Calif., USA).

[3] = ZDF rats, LR-90 50 mg/l in drinking water, at 40 weeks of age, mean ± SEM

CC(C)(Oc1ccc(NC(=O)Nc2ccc(Cc3ccc(NC(=O)Nc4ccc(OC(C)(C)C(=O)O)cc4)c(Cl)c3)cc2Cl)cc1)C(=O)O [LR-90, methylene bis[4,4′-(2-chlorophenylureidophenoxyisobutyric acid)]]
quantitative scoring for PAMS staining ([1]; FIG. 1c): reduced significantly
tubular degeneration ([1]; FIG. 1e): reduced significantly
percentage positive collagen area staining ([1]; FIG. 1f): reduced significantly
glomerulosclerosis index (GSI) ([1]; FIG. 1d): reduced significantly
Mean Kidney Weights [2, 3]: 4.23 ± 0.27 g
Relative Kidney Weights [2, 3]: 12.23 ± 0.78 g/kg
Total Urinary Protein [2, 3]: 176.4 ± 43.3 mg/24 h
Urinary Albumin [2, 3]: 25.8 ± 4.8 mg/24 h
Urine Volume [2, 3]: 137 ± 24 mL/day
prevention of increase in total urinary protein ([2]; vs untreated ZDF rats, p<0.01): 67%
prevention of increase in urinary albumin ([2]; vs untreated ZDF rats, p<0.05): 42%
